Measured values published in patent US12134620B2 (ARAXES PHARMA LLC, priority 2018, dated 2024).

target: T1, KRAS G12C 1-169, his-tagged protein, GDP-loaded (Homo sapiens, UniProt P01116, G12C); assay: Biochemical assay: covalent modification of KRAS G12C, analysed by mass spectrometry (RapidFire/TOF or Q-Exactive); assay type: binding; conditions: Modification activity, modification percentage from MS peak intensities; further: time not given here
T1 construct: KRAS G12C 1-169, his-tagged protein, GDP-loaded; His tag
Procedure, shortened: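 Covalent adduct formation was quantified by intact-protein mass spectrometry, either TOF or C4 LC-Q Exactive Plus, as percent modified versus unmodified protein after deconvolution. Compounds at 8 or 32 μM final were incubated with 0.5 or 2 μM GDP-bound KRAS G12C(1-169)-His in Hepes/NaCl/MgCl2 buffer before acid quench.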

Structure (SMILES) | Binding %
C=CC(=O)N1CC2(CCN(c3cncc(-c4c(C)ccc5[nH]ncc45)c3C#N)C2)C1 [Compound I-256, 3-(2-acryloyl-2,6-diazaspiro[3.4]octan-6-yl)-5-(5-methyl-1H-indazol-4-yl)isonicotinonitrile] | +++ (+++ indicates binding activity greater than 85%)
C=CC(=O)N1CC2(CCN(c3nc(OCc4cnc(C)nc4)nc(-c4c(C)ccc5[nH]ncc45)c3C#N)C2)C1 [Compound I-171, 4-(2-acryloyl-2,6-diazaspiro[3.4]octan-6-yl)-6-(5-methyl-1H-indazol-4-yl)-2-((2-methylpyrimidin-5-yl)methoxy)pyrimidine-5-carbonitrile] | +++ (+++ indicates binding activity greater than 85%)
C=CC(=O)N1CC2(CCN(c3nc(N4Cc5ccccc5C4)nc(-c4c(C)ccc5[nH]ncc45)c3C#N)C2)C1 [Compound I-24, 4-(2-acryloyl-2,6-diazaspiro[3.4]octan-6-yl)-2-(isoindolin-2-yl)-6-(5-methyl-1H-indazol-4-yl)pyrimidine-5-carbonitrile] | ++ (++ indicates binding activity from 50 to 85%)
C/C=C/C(=O)N1CC2(CCN(c3ncnc(-c4c(C)ccc5[nH]ncc45)c3C#N)C2)C1 [Compound I-266, (E)-4-(2-(but-2-enoyl)-2,6-diazaspiro[3.4]octan-6-yl)-6-(5-methyl-1 1H-indazol-4-yl)pyrimidine-5-carbonitrile] | + (+ indicates binding activity greater than 0% and up to 50%)
C=CC(=O)N1CC2(CCN(c3ncnc(N4CCC[C@H]4C(N)=O)c3C#N)C2)C1 [Compound I-248, (S)-1-(6-(2-acryloyl-2,6-diazaspiro[3.4]octan-6-yl)-5-cyanopyrimidin-4-yl)pyrrolidine-2-carboxamide] | + (+ indicates binding activity greater than 0% and up to 50%)
C=CC(=O)N1CC2(CCN(c3nc(OC[C@@H]4CCCN4C)nc(-c4ccnc(N)n4)c3C#N)C2)C1 [Compound I-167, (S)-6-(2-acryloyl-2,6-diazaspiro[3.4]octan-6-yl)-2′-amino-2-((1-methylpyrrolidin-2-yl)methoxy)-[4,4′-bipyrimidine]-5-carbonitrile] | + (+ indicates binding activity greater than 0% and up to 50%)
C=CC(=O)N1CC2(CCN(c3nc(OC[C@@H]4CCCN4C)nc(Nc4ccccc4C(N)=O)c3C#N)C2)C1 [Compound I-36, (S)-2-((6-(2-acryloyl-2,6-diazaspiro[3.4]octan-6-yl)-5-cyano-2-((1-methylpyrrolidin-2-yl)methoxy)pyrimidin-4-yl)amino)benzamide] | + (+ indicates binding activity greater than 0% and up to 50%)
C=CC(=O)N1CC2(CCN(c3ccnc(-c4c(C)ccc5[nH]ncc45)c3C#N)C2)C1 [Compound I-252, 4-(2-acryloyl-2,6-diazaspiro[3.4]octan-6-yl)-2-(5-methyl-1H-indazol-4-yl)nicotinonitrile] | + (+ indicates binding activity greater than 0% and up to 50%)
C=CC(=O)N1CC2(CCN(c3nc(OCCc4ccccn4)nc(-c4c(C)ccc5[nH]ncc45)c3C#N)CC2)C1 [Compound I-75, 4-(2-acryloyl-2,7-diazaspiro[3.5]nonan-7-yl)-6-(5-methyl-1H-indazol-4-yl)-2-(2-(pyridin-2-yl)ethoxy)pyrimidine-5-carbonitrile] | ++ (++ indicates binding activity from 50 to 85%)
C=CC(=O)N1CC2(CCN(c3cc(-c4c(O)cccc4F)ncn3)C2)C1 [Compound I-230, 1-(6-(6-(2-fluoro-6-hydroxyphenyl)pyri-midin-4-yl)-2,6-diazaspiro[3.4]octan-2-yl)prop-2-en-1-one] | + (+ indicates binding activity greater than 0% and up to 50%)
Cc1ccc2[nH]ncc2c1-c1nc(N2CCOCC2)nc(N2CCC3(CN(C(=O)/C=C/CN(C)C)C3)C2)c1C#N [Compound I-85, (E)-4-(2-(4-(dimethylamino)but-2-enoyl)-2,6-diazaspiro[3.4]octan-6-yl)-6-(5-methyl-1H-indazol-4-yl)-2-morpholinopyrimidine-5-carbonitrile] | + (+ indicates binding activity greater than 0% and up to 50%)
C=CC(=O)N1CC2(CCN(c3nc(OC[C@@H]4CCCN4C)nc(-c4ccccc4C(F)(F)F)c3C#N)C2)C1 [Compound I-16, (S)-4-(2-acryloyl-2,6-diazaspiro[3.4]octan-6-yl)-2-((1-methylpyrrolidin-2-yl)methoxy)-6-(2-(trifluoromethyl)phe-nyl)pyrimidine-5-carbonitrile] | + (+ indicates binding activity greater than 0% and up to 50%)
C=CC(=O)N1CC2(CCN(c3ncnc(-c4c(C)ccc5cn[nH]c45)c3C#N)CC2)C1 [Compound I-237, 4-(2-acryloyl-2,7-diazaspiro[3.5]ononan-7-yl)-6-(6-methyl-1H-indazol-7-yl)pyrimidine-5-carbonitrile] | + (+ indicates binding activity greater than 0% and up to 50%)
C=CC(=O)N1CC2(CCN(c3nc(OCc4cnc(OC)nc4)nc(-c4c(C)ccc5cnn(C)c45)c3C#N)C2)C1 [Compound I-161, 4-(2-acryloyl-2,6-diazaspiro[3.4]octan-6-yl)-6-(1,6-dimethyl-1H-indazol-7-yl)-2-((2-methoxypyrimidin-5-yl)methoxy)pyrimidine-5-carbonitrile] | ++ (++ indicates binding activity from 50 to 85%)
C=CC(=O)N1CC2(CCN(c3nc(OC[C@H]4CCN(C)C4)nc(-c4c(C)ccc5[nH]ncc45)c3C#N)C2)C1 [Compound I-116, 4-(2-acryloyl-2,6-diazaspiro[3.4]octan-6-yl)-6-(5-methyl-1H-indazol-4-yl)-2-(((S)-1-methylpyrrolidin-3-yl)methoxy)pyrimidine-5-carbonitrile] | ++ (++ indicates binding activity from 50 to 85%)
C=CC(=O)N1CC2(CCN(c3nc(OCc4ccccc4)nc(-c4c(C)ccc5cnn(C)c45)c3C#N)C2)C1 [Compound I-163, 4-(2-acryloyl-2,6-diazaspiro[3.4]octan-6-yl)-2-(benzyloxy)-6-(1,6-dimethyl-1H-indazol-7-yl)pyrimidine-5-carbonitrile] | ++ (++ indicates binding activity from 50 to 85%)
C=CC(=O)N1CC2(CCN(c3cncc(-c4c(C)ccc5cnn(C)c45)c3C#N)C2)C1 [Compound I-264, 3-(2-acryloyl-2,6-diazaspiro[3.4]octan-6-yl)-5-(1,6-dimethyl-1H-indazol-7-yl)isonicotinonitrile] | ++ (++ indicates binding activity from 50 to 85%)
C=CC(=O)N1CC2(CCN(c3ncnc(-c4c(C)ccc5[nH]ncc45)c3C#N)CC2)C1 [Compound I-236, 4-(2-acryloyl-2,7-diazaspiro[3.5]nonan-7-yl)-6-(5-methyl-1H-indazol-4-yl)pyrimidine-5-carbonitrile] | + (+ indicates binding activity greater than 0% and up to 50%)
C=CC(=O)N1CC2(CCN(c3nc(OCc4ccccn4)nc(-c4c(C)ccc5[nH]ncc45)c3C#N)C2)C1 [Compound I-15, 4-(2-acryloyl-2,6-diazaspiro[3.4]octan-6-yl)-6-(5-methyl-1H-indazol-4-yl)-2-(pyridin-2-ylmethoxy)pyrimidine-5-carbonitrile] | +++ (+++ indicates binding activity greater than 85%)
C=CC(=O)N1CC2(CCN(c3ncnc(Oc4cccc(C(N)=O)c4)c3C#N)C2)C1 [Compound I-255, 3-((6-(2-acryloyl-2,6-diazaspiro[3.4]octan-6-yl)-5-cyanopyrimidin-4-yl)oxy)benzamide] | + (+ indicates binding activity greater than 0% and up to 50%)
